Assay results from PubChem BioAssay AID248 (DTP/NCI, 2004).
Several values for one entry are separate records, joined by “and”; a condition that tells them apart may be missing. Identical values can stand only once. Inconclusive results and toxic doses are left out. Rule as the data show it: active = T/C of 150% or more; inactive = T/C below 125%.

Test system: L1210 leukemia ip in BDF1 mice, survival T/C
Assay: NCI In Vivo Anticancer Drug Screen. Data for tumor model L1210 Leukemia (intraperitoneal) in B6D2F1 (BDF1) mice
Conditions: endpoint: mean survival time, higher = longer survival
How it was run: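 Read-out is survival time, reported as the treated-group measurement over the vehicle-control measurement.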

[1] = dose: 100.0 mg/kg/injection, schedule: Q01DX009 (ip), vehicle: Klucel (hydroxypropylcellulose) (HPC)
[2] = dose: 200.0 mg/kg/injection, schedule: Q01DX009 (ip), vehicle: Klucel (hydroxypropylcellulose) (HPC)
[3] = dose: 400.0 mg/kg/injection, schedule: Q01DX009 (ip), vehicle: Klucel (hydroxypropylcellulose) (HPC)
[4] = dose: 100.0 mg/kg/injection, schedule: Q01DX009 (ip), vehicle: saline with Tween-80
[5] = dose: 200.0 mg/kg/injection, schedule: Q01DX009 (ip), vehicle: saline with Tween-80
[6] = dose: 75.0 mg/kg/injection, schedule: Q04DX003 (ip), vehicle: saline
[7] = dose: 150.0 mg/kg/injection, schedule: Q04DX003 (ip), vehicle: saline
[8] = dose: 300.0 mg/kg/injection, schedule: Q04DX003 (ip), vehicle: saline
[9] = dose: 100.0 mg/kg/injection, schedule: Q04DX003 (ip), vehicle: saline with Tween-80
[10] = dose: 200.0 mg/kg/injection, schedule: Q04DX003 (ip), vehicle: saline with Tween-80
[11] = dose: 100.0 mg/kg/injection, schedule: Q01DX001 (ip), vehicle: saline
[12] = dose: 200.0 mg/kg/injection, schedule: Q01DX001 (ip), vehicle: saline
[13] = dose: 400.0 mg/kg/injection, schedule: Q01DX001 (ip), vehicle: saline

Measured: T/C

ClC(Cl)(Cl)C/C=C\CBr
inactive: dose: 25.0 mg/kg/injection, schedule: Q01DX009 (ip), vehicle: acetone 98 % of control | dose: 50.0 mg/kg/injection, schedule: Q01DX009 (ip), vehicle: acetone 102 % of control | dose: 50.0 mg/kg/injection, schedule: Q04DX003 (ip), vehicle: acetone 97 % of control | dose: 100.0 mg/kg/injection, schedule: Q01DX001 (ip), vehicle: acetone 89 % of control | dose: 100.0 mg/kg/injection, schedule: Q01DX009 (ip), vehicle: acetone 93 % of control | dose: 100.0 mg/kg/injection, schedule: Q04DX003 (ip), vehicle: acetone 92 % of control | dose: 200.0 mg/kg/injection, schedule: Q01DX001 (ip), vehicle: acetone 91 % of control

COC(=O)c1ccccc1NC(=O)Nc1ccc(F)c([N+](=O)[O-])c1
inactive: dose: 25.0 mg/kg/injection, schedule: Q01DX009 (ip), vehicle: Klucel (hydroxypropylcellulose) (HPC) 109 % of control | dose: 50.0 mg/kg/injection, schedule: Q01DX009 (ip), vehicle: Klucel (hydroxypropylcellulose) (HPC) 103 % of control | [1] 93 % of control and 89 % of control | [2] 95 % of control | [3] 93 % of control

CCOC(=O)/C=[C](\C(=O)OCC)[Sn]([CH2]C)([CH2]C)[CH2]C
inactive: dose: 50.0 mg/kg/injection, schedule: Q01DX009 (ip), vehicle: saline with Tween-80 104 % of control | [4] 96 % of control | [5] 93 % of control

Clc1cc2n[nH]nc2c(SCc2ccccc2)n1
inactive: dose: 50.0 mg/kg/injection, schedule: Q01DX005 (ip), vehicle: saline with Tween-80 101 % of control | dose: 100.0 mg/kg/injection, schedule: Q01DX005 (ip), vehicle: saline with Tween-80 90 % of control | dose: 200.0 mg/kg/injection, schedule: Q01DX005 (ip), vehicle: saline with Tween-80 97 % of control

CC(=O)OC1CCC2(C)C(CCC3C4CCC(=O)OC4(C)CC(=O)C32)C1 (stereo unspecified)
inactive: dose: 100.0 mg/kg/injection, schedule: Q04DX003 (sc), vehicle: steriod suspending solution 104 % of control | dose: 200.0 mg/kg/injection, schedule: Q04DX003 (sc), vehicle: steriod suspending solution 100 % of control | dose: 400.0 mg/kg/injection, schedule: Q04DX003 (sc), vehicle: steriod suspending solution 97 % of control

CCCCCCCC/C=C\CCCCCCCC(=O)NCCCOCCOCC
inactive: [6] 94 % of control | [7] 96 % of control | [8] 96 % of control

CCc1ccccc1NC(=O)N(Cc1ccccc1)Cc1ccccc1
inactive: [1] 101 % of control | [2] 97 % of control | [3] 96 % of control

CC(C)(C)SCCO
inactive: dose: 100.0 mg/kg/injection, schedule: Q04DX002 (ip), vehicle: saline 105 % of control | dose: 200.0 mg/kg/injection, schedule: Q04DX002 (ip), vehicle: saline 99 % of control | dose: 400.0 mg/kg/injection, schedule: Q04DX002 (ip), vehicle: saline 96 % of control

c1ccc2c(c1)CC1Sc3ccccc3N=C21 (stereo unspecified)
inactive: [9] 103 % of control | [10] 95 % of control

O=C1CCCC[CH]1[Hg][Cl] (stereo unspecified)
inactive: dose: 1.25 mg/kg/injection, schedule: Q01DX001 (ip), vehicle: saline 95 % of control | dose: 2.5 mg/kg/injection, schedule: Q01DX001 (ip), vehicle: saline 96 % of control | dose: 5.0 mg/kg/injection, schedule: Q01DX001 (ip), vehicle: saline 87 % of control

CSC(N(C)c1ccccc1)=[N+](C)c1ccccc1
inactive: [11] 105 % of control

CCN(CC)C(=O)N1CCN(c2ccc(Cl)cc2)CC1
inactive: dose: 75.0 mg/kg/injection, schedule: Q01DX001 (ip), vehicle: saline 106 % of control | [6] 103 % of control | dose: 150.0 mg/kg/injection, schedule: Q01DX001 (ip), vehicle: saline 94 % of control | [7] 100 % of control | dose: 300.0 mg/kg/injection, schedule: Q01DX001 (ip), vehicle: saline 108 % of control | [8] 91 % of control

C[Si](C)(C)c1ccc(-c2ccccc2)cc1
inactive: dose: 25.6 mg/kg/injection, schedule: Q04DX002 (ip), vehicle: saline with Tween-80 90 % of control | dose: 64.0 mg/kg/injection, schedule: Q04DX002 (ip), vehicle: saline with Tween-80 90 % of control | dose: 160.0 mg/kg/injection, schedule: Q04DX002 (ip), vehicle: saline with Tween-80 97 % of control | dose: 400.0 mg/kg/injection, schedule: Q04DX002 (ip), vehicle: saline with Tween-80 101 % of control

O=C(OCc1ccccc1)Oc1ccc2ccccc2c1
inactive: dose: 100.0 mg/kg/injection, schedule: Q04DX003 (ip), vehicle: Klucel (hydroxypropylcellulose) (HPC) 102 % of control | dose: 200.0 mg/kg/injection, schedule: Q04DX003 (ip), vehicle: Klucel (hydroxypropylcellulose) (HPC) 95 % of control | dose: 400.0 mg/kg/injection, schedule: Q04DX003 (ip), vehicle: Klucel (hydroxypropylcellulose) (HPC) 95 % of control

O=C(/C=C/c1cccc([N+](=O)[O-])c1)CCl
inactive: dose: 25.0 mg/kg/injection, schedule: Q04DX003 (ip), vehicle: saline with Tween-80 110 % of control | dose: 50.0 mg/kg/injection, schedule: Q04DX003 (ip), vehicle: saline with Tween-80 105 % of control | [9] 103 % of control and 104 % of control

CCOP(=O)(C(O)C(Cl)(Cl)Cl)C(O)C(Cl)(Cl)Cl (stereo unspecified)
inactive: dose: 75.0 mg/kg/injection, schedule: Q04DX003 (ip), vehicle: saline with Tween-80 95 % of control | dose: 150.0 mg/kg/injection, schedule: Q04DX003 (ip), vehicle: saline with Tween-80 97 % of control

CC(=O)CC(C)(C)N
inactive: [9] 94 % of control | [10] 86 % of control

CCOC(=O)C1C(=O)NC(=O)CC1C (stereo unspecified)
inactive: [9] 98 % of control | [5] 100 % of control | [10] 96 % of control | dose: 400.0 mg/kg/injection, schedule: Q01DX009 (ip), vehicle: saline with Tween-80 101 % of control | dose: 400.0 mg/kg/injection, schedule: Q04DX003 (ip), vehicle: saline with Tween-80 104 % of control

CC(C)CP(=O)(CC(C)C)C1CCCCC1
inactive: [9] 97 % of control | [10] 99 % of control

Cc1cccc(N2C(=O)CSC2=S)c1
inactive: dose: 25.0 mg/kg/injection, schedule: Q01DX009 (ip), vehicle: saline with Tween-80 90 % of control | [4] 92 % of control

CCN1CCN(CC)C1(Br)C1(Br)N(CC)CCN1CC
inactive: dose: 75.0 mg/kg/injection, schedule: Q04DX002 (ip), vehicle: saline with Tween-80 91 % of control | dose: 150.0 mg/kg/injection, schedule: Q04DX002 (ip), vehicle: saline with Tween-80 91 % of control | dose: 300.0 mg/kg/injection, schedule: Q04DX002 (ip), vehicle: saline with Tween-80 98 % of control

OCC1OC(n2c(=S)[nH]c3ccccc32)C(O)C1O (stereo unspecified)
inactive: [11] 108 % of control | [12] 100 % of control | [13] 106 % of control

CSc1cc(=O)n(C2OC(CO)C(O)C2O)c(=O)[nH]1 (stereo unspecified)
inactive: [11] 101 % of control | dose: 100.0 mg/kg/injection, schedule: Q01DX005 (ip), vehicle: saline 101 % of control | [12] 118 % of control | dose: 200.0 mg/kg/injection, schedule: Q01DX005 (ip), vehicle: saline 97 % of control | [13] 104 % of control

CCCCCCCCCCCCCCCC(CCCCCCCC)CCCCCCCC
inactive: dose: 75.0 mg/kg/injection, schedule: Q01DX001 (ip), vehicle: saline with Tween-80 97 % of control | dose: 150.0 mg/kg/injection, schedule: Q01DX001 (ip), vehicle: saline with Tween-80 110 % of control | dose: 300.0 mg/kg/injection, schedule: Q01DX001 (ip), vehicle: saline with Tween-80 95 % of control

CCOC(=O)CSC#N
inactive: [11] 101 % of control | dose: 100.0 mg/kg/injection, schedule: Q04DX002 (ip), vehicle: Klucel (hydroxypropylcellulose) (HPC) 95 % of control | [12] 101 % of control | dose: 200.0 mg/kg/injection, schedule: Q04DX002 (ip), vehicle: Klucel (hydroxypropylcellulose) (HPC) 91 % of control | [13] 95 % of control | dose: 400.0 mg/kg/injection, schedule: Q04DX002 (ip), vehicle: Klucel (hydroxypropylcellulose) (HPC) 107 % of control

COc1ccccc1CN1CCCN(Cc2ccccc2OC)C1c1c(O)ccc2ccccc12
inactive: dose: 100.0 mg/kg/injection, schedule: Q01DX001 (ip), vehicle: carboxymethylcellulose (CMC) 91 % of control | dose: 200.0 mg/kg/injection, schedule: Q01DX001 (ip), vehicle: carboxymethylcellulose (CMC) 91 % of control | dose: 400.0 mg/kg/injection, schedule: Q01DX001 (ip), vehicle: carboxymethylcellulose (CMC) 91 % of control

CCOC(=S)SCCSC(=S)OCC
inactive: [11] 105 % of control | [12] 100 % of control | [13] 97 % of control
